Experimental findings from ChEMBL document CHEMBL1148514, “Development of lipopeptides for inhibiting 20S proteasomes” (Bioorg Med Chem Lett, 2006) are described below.

The target in experiment [1] is T1, Proteasome Macropain subunit (Saccharomyces cerevisiae S288c, UniProt P22141).
T1 sequence (P22141 whole entry): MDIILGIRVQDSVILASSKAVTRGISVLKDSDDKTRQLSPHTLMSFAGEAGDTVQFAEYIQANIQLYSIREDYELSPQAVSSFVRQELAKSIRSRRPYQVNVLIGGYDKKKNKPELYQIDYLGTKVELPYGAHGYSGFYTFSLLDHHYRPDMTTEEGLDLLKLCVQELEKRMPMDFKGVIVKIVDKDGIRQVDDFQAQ
As to the kind of experiment: Inhibition of trypsin like activity of yeast 20S proteasome.

The target in experiment [2] is T2, Proteasome component C5 (Saccharomyces cerevisiae S288c) (UniProt P23724).
T2 sequence (whole entry): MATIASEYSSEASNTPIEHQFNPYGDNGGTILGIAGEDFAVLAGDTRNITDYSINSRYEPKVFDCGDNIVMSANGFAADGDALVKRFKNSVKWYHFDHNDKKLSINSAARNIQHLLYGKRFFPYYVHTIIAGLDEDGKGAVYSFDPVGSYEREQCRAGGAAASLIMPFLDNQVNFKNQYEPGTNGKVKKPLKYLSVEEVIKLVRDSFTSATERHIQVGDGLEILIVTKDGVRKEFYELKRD
As to the kind of experiment: Activation of post acid activity of yeast 20S proteasome.

Experiment [3] has as its target T3, Proteasome Macropain subunit PRE2 (Saccharomyces cerevisiae S288c, UniProt P30656).
T3 sequence (P30656 whole entry): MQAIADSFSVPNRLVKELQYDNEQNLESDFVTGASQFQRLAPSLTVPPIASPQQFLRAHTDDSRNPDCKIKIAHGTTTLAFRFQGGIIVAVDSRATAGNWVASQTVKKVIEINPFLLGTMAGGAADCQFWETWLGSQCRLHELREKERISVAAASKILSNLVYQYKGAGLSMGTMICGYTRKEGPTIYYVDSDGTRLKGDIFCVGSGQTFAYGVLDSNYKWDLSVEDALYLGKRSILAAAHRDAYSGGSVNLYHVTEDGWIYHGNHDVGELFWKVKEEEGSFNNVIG
The experiment in a line: Inhibition of chymotrypsin like activity of yeast 20S proteasome.

The target of experiment [4] is T4, Proteasome component C5 (Saccharomyces cerevisiae S288c, UniProt P23724).
T4 sequence (P23724 whole entry): T2 sequence (whole entry)
As to the kind of experiment: Inhibition of post acid activity of yeast 20S proteasome.

Experiment [5] has as its target T5, Proteasome Macropain subunit (Saccharomyces cerevisiae S288c) (UniProt P22141).
T5 sequence (whole entry): T1 sequence (P22141 whole entry)
The experiment in a line: Inhibition of trypsin like activity of yeast 20S proteasome at 625 uM.

Experiment [6] addresses T2, Proteasome component C5 (Saccharomyces cerevisiae S288c). As to the kind of experiment: Inhibition of post acid activity of yeast 20S proteasome at 80 uM.
The target of experiment [7] is T5, Proteasome Macropain subunit (Saccharomyces cerevisiae S288c). As to the kind of experiment: Inhibition of trypsin like activity of yeast 20S proteasome at 80 uM.
Experiment [8] addresses T6, Proteasome Macropain subunit PRE2 (Saccharomyces cerevisiae S288c) (UniProt P30656).
T6 sequence (whole entry): T3 sequence (P30656 whole entry)
As to the kind of experiment: Inhibition of chymotrypsin like activity of yeast 20S proteasome at 80 uM.

Residues, ends and D or L forms follow the SMILES beside them.

On to `CCCCCCCCCCCCCC(=O)N[C@H](C(=O)N[C@H](C(=O)N[C@H](C(=O)N[C@@H](Cc1ccc(O)cc1)C(=O)N[C@@H](CCCCN)C(=O)N[C@@H](Cc1ccccc1)C(=O)O)[C@@H](C)O)C(C)C)[C@@H](C)O` (HELM PEPTIDE1{[CCCCCCCCCCCCCC(=O)[*:2]].T.V.T.Y.K.F}$$$$V2.0), for which the affinity in experiment [1], expressed as Ki, was 80 µM. In experiment [2], this compound yielded an Activity of 1.2.
Take H-TVTYKY-OH: the Ki in experiment [3] and in experiment [4] was > 625 µM in each case. Also, in experiment [5], the inhibition (usually the change of the read-out against control, counted positive when it falls) was < 10%.
For the compound `CCCCCCCCCCCCCCCC(=O)N[C@@H](Cc1ccccc1)C(=O)N[C@@H](CCCCN)C(=O)N[C@@H](Cc1ccccc1)C(=O)O` (HELM PEPTIDE1{[CCCCCCCCCCCCCCCC(=O)[*:2]].F.K.F}$$$$V2.0), the Ki – broadly, the equilibrium dissociation constant of an inhibitor or competing ligand from its target – in experiment [1] is > 80 µM; in experiment [3] it was 30 µM. The inhibition in experiment [6] was < 10%.
In the case of H-TVTFKF-OH, the Ki in experiment [3] stood at 139 µM; in experiment [4], 148 µM. Further, the inhibition in experiment [5] was < 10%.
Consider `CCCCCC(=O)N[C@@H](Cc1ccc(O)cc1)C(=O)N[C@@H](CCC(=O)O)C(=O)N[C@@H](CC(C)C)C(=O)O` (HELM PEPTIDE1{[CCCCCC(=O)[*:2]].Y.E.L}$$$$V2.0), for which the Ki in experiment [3] was > 80 µM; in experiment [4], 59 µM. Moreover, in experiment [7], the inhibition was < 10%.
Regarding `CCCCCCCCCCCCCCCC(=O)N[C@@H](Cc1ccc(O)cc1)C(=O)N[C@@H](CC(=O)O)C(=O)N[C@@H](CC(C)C)C(=O)O` (HELM PEPTIDE1{[CCCCCCCCCCCCCCCC(=O)[*:2]].Y.D.L}$$$$V2.0), the Ki is > 80 µM in experiment [1], 20 µM in experiment [3] and 15 µM in experiment [4].
Consider `CCCCCC(=O)N[C@H](C(=O)N[C@H](C(=O)N[C@H](C(=O)N[C@@H](Cc1ccccc1)C(=O)N[C@@H](CCCCN)C(=O)N[C@@H](Cc1ccccc1)C(=O)O)[C@@H](C)O)C(C)C)[C@@H](C)O` (HELM PEPTIDE1{[CCCCCC(=O)[*:2]].T.V.T.F.K.F}$$$$V2.0), for which the Ki in experiment [3] came to 43 µM. In addition, the inhibition in experiment [6] and in experiment [7] was < 10% in each case.
Regarding `CCCCCCCCCCCC(=O)N[C@H](C(=O)N[C@H](C(=O)N[C@H](C(=O)N[C@@H](Cc1ccc(O)cc1)C(=O)N[C@@H](CCCCN)C(=O)N[C@@H](Cc1ccccc1)C(=O)O)[C@@H](C)O)C(C)C)[C@@H](C)O` (HELM PEPTIDE1{[CCCCCCCCCCCC(=O)[*:2]].T.V.T.Y.K.F}$$$$V2.0), the Ki in experiment [1] is 68 µM; in experiment [3] it was > 80 µM. This compound returned an Activity in experiment [2] of 1.2.
Compound `CCCCCCCCCC(=O)N[C@H](C(=O)N[C@H](C(=O)N[C@H](C(=O)N[C@@H](Cc1ccccc1)C(=O)N[C@@H](CCCCN)C(=O)N[C@@H](Cc1ccccc1)C(=O)O)[C@@H](C)O)C(C)C)[C@@H](C)O` (HELM PEPTIDE1{[CCCCCCCCCC(=O)[*:2]].T.V.T.F.K.F}$$$$V2.0) came in with a Ki in experiment [3] of 28 µM.
For the compound `CCCCCCCCCCCCCCCC(=O)N[C@@H](Cc1ccc(O)cc1)C(=O)N[C@@H](CCC(=O)O)C(=O)N[C@H](C(=O)O)[C@@H](C)O` (HELM PEPTIDE1{[CCCCCCCCCCCCCCCC(=O)[*:2]].Y.E.T}$$$$V2.0), the results for the Ki in experiment [3] and in experiment [4] were 20 µM and 21 µM, respectively.
With `CCCCCCCCCCCC(=O)N[C@H](C(=O)N[C@H](C(=O)N[C@H](C(=O)N[C@@H](Cc1ccccc1)C(=O)N[C@@H](CC(=O)O)C(=O)N[C@@H](Cc1ccc(O)cc1)C(=O)O)[C@@H](C)O)[C@@H](C)CC)[C@@H](C)O` (HELM PEPTIDE1{[CCCCCCCCCCCC(=O)[*:2]].T.I.T.F.D.Y}$$$$V2.0), the Ki in experiment [1], in experiment [3] and in experiment [4] was > 80 µM in each case.
With H-TVSYKF-OH, the Ki in experiment [3] and in experiment [4] was > 625 µM throughout. Also, in experiment [5], the inhibition is < 10%.
Turning to `CCCCCCCCCCCCCCC(N)C(=O)N[C@@H](Cc1ccc(O)cc1)C(=O)N[C@@H](CCC(=O)O)C(=O)N[C@H](C(=O)O)[C@@H](C)O` (stereo not given in full) (HELM PEPTIDE1{[CCCCCCCCCCCCCCC(N)C(=O)[*:2]].Y.E.T}$$$$V2.0), the Ki is 5 µM in experiment [3] and 8 µM in experiment [4].
With `CCCCCCCCCCCCCCCC(=O)N[C@H](C(=O)N[C@H](C(=O)N[C@H](C(=O)N[C@@H](Cc1ccccc1)C(=O)N[C@@H](CC(=O)O)C(=O)N[C@@H](Cc1ccc(O)cc1)C(=O)O)[C@@H](C)O)[C@@H](C)CC)[C@@H](C)O` (HELM PEPTIDE1{[CCCCCCCCCCCCCCCC(=O)[*:2]].T.I.T.F.D.Y}$$$$V2.0), in experiment [3], the Ki came out at 80 µM. Besides, in experiment [2], the Activity is 1.5. In experiment [7], the inhibition was < 10%.
As to `CCCCCC(=O)N[C@H](C(=O)N[C@H](C(=O)N[C@H](C(=O)N[C@@H](Cc1ccc(O)cc1)C(=O)N[C@@H](CCCCN)C(=O)N[C@@H](Cc1ccccc1)C(=O)O)[C@@H](C)O)C(C)C)[C@@H](C)O` (HELM PEPTIDE1{[CCCCCC(=O)[*:2]].T.V.T.Y.K.F}$$$$V2.0), the Ki in experiment [1] came out at 315 µM; in experiment [3] it was 80 µM. For the same compound, the inhibition in experiment [6] is < 10%.
Turning to `CCCCCCCC(=O)N[C@H](C(=O)N[C@H](C(=O)N[C@H](C(=O)N[C@@H](Cc1ccccc1)C(=O)N[C@@H](CC(=O)O)C(=O)N[C@@H](Cc1ccc(O)cc1)C(=O)O)[C@@H](C)O)[C@@H](C)CC)[C@@H](C)O` (HELM PEPTIDE1{[CCCCCCCC(=O)[*:2]].T.I.T.F.D.Y}$$$$V2.0), the Ki in experiment [3] is 43 µM; in experiment [4], > 80 µM. The inhibition in experiment [7] is < 10%.
`CCCCCC(=O)N[C@H](C(=O)N[C@H](C(=O)N[C@H](C(=O)N[C@@H](Cc1ccccc1)C(=O)N[C@@H](CC(=O)O)C(=O)N[C@@H](Cc1ccc(O)cc1)C(=O)O)[C@@H](C)O)[C@@H](C)CC)[C@@H](C)O` (HELM PEPTIDE1{[CCCCCC(=O)[*:2]].T.I.T.F.D.Y}$$$$V2.0) gave a Ki in experiment [3] of 34 µM. In addition, the inhibition in experiment [6] and in experiment [7] was < 10% in each case.
Regarding H-TISYDY-OH, the Ki in experiment [3] and in experiment [4] was > 625 µM each time. Further, the inhibition in experiment [5] is < 10%.
On to `CCCCCCCC(=O)N[C@H](C(=O)N[C@H](C(=O)N[C@H](C(=O)N[C@@H](Cc1ccccc1)C(=O)N[C@@H](CCCCN)C(=O)N[C@@H](Cc1ccccc1)C(=O)O)[C@@H](C)O)C(C)C)[C@@H](C)O` (HELM PEPTIDE1{[CCCCCCCC(=O)[*:2]].T.V.T.F.K.F}$$$$V2.0), for which the Ki in experiment [3] is > 80 µM.
As to `CCCCCCCCCC(=O)N[C@H](C(=O)N[C@H](C(=O)N[C@H](C(=O)N[C@@H](Cc1ccc(O)cc1)C(=O)N[C@@H](CCCCN)C(=O)N[C@@H](Cc1ccccc1)C(=O)O)[C@@H](C)O)C(C)C)[C@@H](C)O` (HELM PEPTIDE1{[CCCCCCCCCC(=O)[*:2]].T.V.T.Y.K.F}$$$$V2.0), affinity in experiment [3] was put at a Ki of 72 µM. The same compound showed an Activity in experiment [2] of 1.2. In addition, the inhibition in experiment [7] was < 10%.
As for H-TITYDL-OH, the Ki in experiment [3] is 619 µM; in experiment [4], > 625 µM. In addition, the inhibition in experiment [5] was < 10%.
Regarding `CCCCCCCCCCCCCCCC(=O)N[C@@H](Cc1ccc(O)cc1)C(=O)N[C@@H](CC(N)=O)C(=O)N[C@H](C(=O)O)[C@@H](C)O` (HELM PEPTIDE1{[CCCCCCCCCCCCCCCC(=O)[*:2]].Y.N.T}$$$$V2.0), the affinity in experiment [3] corresponds to a Ki of 30 µM.
With H-TITFDY-OH, the Ki in experiment [3] and in experiment [4] was > 625 µM in each case. Besides, in experiment [5], the inhibition is < 10%.
Compound `CCCCCCCCCC(=O)N[C@H](C(=O)N[C@H](C(=O)N[C@H](C(=O)N[C@@H](Cc1ccccc1)C(=O)N[C@@H](CC(=O)O)C(=O)N[C@@H](Cc1ccc(O)cc1)C(=O)O)[C@@H](C)O)[C@@H](C)CC)[C@@H](C)O` (HELM PEPTIDE1{[CCCCCCCCCC(=O)[*:2]].T.I.T.F.D.Y}$$$$V2.0) gave a Ki in experiment [3] of 37 µM.
Consider `CCCCCCCCCCCCCCCC(=O)N[C@@H](Cc1ccc(O)cc1)C(=O)N[C@@H](CCCCN)C(=O)N[C@@H](Cc1ccccc1)C(=O)O` (HELM PEPTIDE1{[CCCCCCCCCCCCCCCC(=O)[*:2]].Y.K.F}$$$$V2.0), for which the Ki was > 80 µM in experiment [1] and 81 µM in experiment [3]. In experiment [6], the inhibition was < 10%.
Turning to `CCCCCCCCCCCCCCCC(=O)N[C@@H](Cc1ccc(O)cc1)C(=O)N[C@@H](CCC(=O)O)C(=O)N[C@@H](CC(C)C)C(=O)O` (HELM PEPTIDE1{[CCCCCCCCCCCCCCCC(=O)[*:2]].Y.E.L}$$$$V2.0), the figures for the Ki in experiment [1], in experiment [3] and in experiment [4] were > 80 µM, 18 µM and 15 µM, respectively.
Take `CCCCCCCCCC(=O)N[C@@H](Cc1ccc(O)cc1)C(=O)N[C@@H](CCC(=O)O)C(=O)N[C@@H](CC(C)C)C(=O)O` (HELM PEPTIDE1{[CCCCCCCCCC(=O)[*:2]].Y.E.L}$$$$V2.0): the inhibition in experiment [8] and in experiment [7] was < 10% throughout. This compound also registered a Ki in experiment [4] of 72 µM.
